Assay results as given in patent US5691148A, “Petroleum immunoassay method, its components and a kit for use in performing the same” (ENSYS, Inc., priority 1994, dated 1997).
Read-outs that look alike come from different tables or passages of the source.

Columns and labels:
[1] = test system: monoclonal F12-3C8 antibody (anti-petroleum); assay: Cross-reactivity of immunoassay relative to m-xylene; assay type: binding, mouse (Balb/c); details: for ED50: calculated from a dose response curve
Experimental: (§1) Female Balb/c mice received a primary subcutaneous immunization with 50 ug of xylene derivatized to bovine serum albumin in adjuvant (MPL+TDM Emulsion, RIBI Immunochem Research, Inc., Hamilton, Mont.). Subcutaneous secondary injections (25 ug) were given at day 21, 35, and then monthly. The production of monoclonal antibodies was performed according to conventional procedures (see Milstein, Cancer, 49:1953-1957 (1982)). Hybridoma cultures producing monoclonal antibodies recognizing free hapten by EIA were cloned by limiting dilution.
(§2) Antibody coated tubes were prepared by passively coating polystyrene (12×75 mm, NUNC) tubes with the monoclonal F12-3C8 antibody diluted in PBS and incubating overnight.
(§3) 10 g of a soil sample were placed in an extraction vial containing 20 mL of methanol and 5 steel pellets (6 mm) and the vial and its contents shaken for 1 minute to disperse the soil particles and extract the petroleum hydrocarbons. The sample was then filtered to clarify the sample using a filter of glass fiber and 0.45μTeflon. 45 uL of the clarified filtrate sample was mixed with 955 μl of 10 mM PBS (pH=7.4) and the resulting mixture added to lyophilized enzyme conjugate reagent (0.3 μg) and mixed. At the same time, 2×45 uL of the xylene standard are similarly treated. The sample and the two standards were then poured into three identical antibody coated tubes, respectively, and the resulting solution mixed. The resulting solution was incubated for 10 minutes at ambient temperature and then washed 4× with a wash buffer (detergent-saline solution). 250 uL of tetramethylbenzidene solution (KP Laboratories, Cat. No. 50-76-02) was added along with 250 uL of hydrogen peroxide solution (KPL, Cat. No. 50-65-02) and the resultant solution mixed. After incubating for 2.5 minutes the color development reaction was stopped with 250 uL of stop solution (1M sulfuric acid).
The ED50 value was calculated from a dose response curve.
Percent CrossReactivity = ((mXylene ED50 /Compound ED50) .times

[2] = test system: monoclonal F12-3C8 antibody (anti-petroleum); assay: Cross-reactivity of immunoassay: concentration needed to provide a positive result; assay type: binding, mouse (Balb/c); details: test compounds dissolved in methanol
Experimental: as §1, with “dilution. Clone F12-3C8 was selected based upon specificity, and interference criteria.” for “dilution.”
as §2, §3
Cross-reactivity of the immunoassay of the present
invention. The test compounds were dissolved in
methanol and assayed. The values listed are the
concentration of compound needed to provide a […]

[3] = (m-Xylene ED50 / Compound ED50) x 100, m-xylene = 100%

`CC(C)CC(C)(C)C` [2,2,4-Trimethylpentane] was tested, and the “% Cross-Reactivity” value [1, 3] was under 1% and the ED50 [1] was “Negative”.
In the case of `CCCCC(C)C` [2-Methylhexane], the “% Cross-Reactivity” value [1, 3] was 43% and the ED50 ([1]; 10 min) was 1,113 ppb.
In the case of `CCCC(C)C` [2-Methylpentane], the “% Cross-Reactivity” value [1, 3] was 57% and the ED50 ([1]; 10 min) was 851 ppb.
`c1cc2c3c(cccc3c1)CC2` [Acenaphthene] was tested, and the “% Cross-Reactivity” value [1, 3] was 5,378%, the ED50 ([1]; 10 min) was 9 ppb and the Conc. where positive [2] was 2.5 ppm.
For `c1ccccc1` [Benzene], the “% Cross-Reactivity” value [1] was under 1% and the Conc. where positive [2] was > 10,000 ppm.
For `C1CCCCC1` [Cyclohexane], the “% Cross-Reactivity” value [1, 3] was 7% and the ED50 ([1]; 10 min) was 6,636 ppb.
For `CCc1ccccc1` [Ethylbenzene], the “% Cross-Reactivity” value [1] was 275% and the ED50 ([1]; 10 min) was 176 ppb.
Molecule `CCCCCCC` [Heptane] has a Conc. where positive [2] of 300 ppm.
With `CCCCCC` [Hexane] the Conc. where positive [2] was 300 ppm.
`CC(C)CC(C)(C)C` [Isooctane] gave a Conc. where positive [2] of 100 ppm.
With `c1ccc2ccccc2c1` [Naphthalene] the “% Cross-Reactivity” value [1, 3] was 4,390%, the ED50 ([1]; 10 min) was 11 ppb and the Conc. where positive [2] was 2.5 ppm.
With `c1ccc2c(c1)ccc1ccccc12` [Phenanthrene] the “% Cross-Reactivity” value [1, 3] was 848%, the ED50 ([1]; 10 min) was 57 ppb and the Conc. where positive [2] was 10 ppm.
With `Cc1ccccc1` [Toluene] the “% Cross-Reactivity” value [1, 3] was 22%, the ED50 ([1]; 10 min) was 2,210 ppb and the Conc. where positive [2] was 300 ppm.
`CCCCCCCCCCC` [Undecane] was tested, and the Conc. where positive [2] was > 10,000 ppm.
`Cc1cccc(C)c1` [m-Xylene, reference compound] was tested, and the “% Cross-Reactivity” value [1, 3] was 100% and the ED50 ([1]; 10 min) was 483 ppb.
For `CCCCCCC` [n-Heptane], the “% Cross-Reactivity” value [1, 3] was 30% and the ED50 ([1]; 10 min) was 1,669 ppb.
`CCCCCCCCC` [n-Nonane] was tested, and the “% Cross-Reactivity” value [1, 3] was under 1% and the ED50 [1] was “Negative”.
In the case of `CCCCCCCC` [n-Octane], the “% Cross-Reactivity” value [1, 3] was 11% and the ED50 ([1]; 10 min) was 4,589 ppb.
In the case of `CCCCCCCCCCCCCC` [n-Tetradecane], the “% Cross-Reactivity” value [1, 3] was under 1% and the ED50 [1] was “Negative”.
For `CCCCCCCCCCCCC` [n-Tridecane], the “% Cross-Reactivity” value [1, 3] was under 1% and the ED50 [1] was “Negative”.
`CCCCCCCCCCC` [n-Undecane] was tested, and the “% Cross-Reactivity” value [1, 3] was under 1% and the ED50 [1] was “Negative”.
With `Cc1ccccc1C` [o-Xylene] the “% Cross-Reactivity” value [1, 3] was 271% and the ED50 ([1]; 10 min) was 178 ppb.
For `Cc1ccc(C)cc1` [p-Xylene], the “% Cross-Reactivity” value [1, 3] was 38% and the ED50 ([1]; 10 min) was 1,255 ppb.
For Methylnaphthalene, the “% Cross-Reactivity” value [1, 3] was 780%, the ED50 ([1]; 10 min) was 62 ppb and the Conc. where positive [2] was 10 ppm.
Xylene gave a Conc. where positive [2] of 100 ppm.
